In the test the target is T1, human B-Raf (Homo sapiens, UniProt P15056).
T1 construct: Flag; GST; made in house; host or cells: Sf9 insect cells (B-Raf); E. coli (MEK1-GST)
Put plainly: B-Raf Kinase to MEK1 ELISA. The class given is biochemical. The settings on record: for inhibition at 10 µM: read-out: % Inhib./10 uM. The method, boiled down: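 Flag/GST-tagged human B-Raf (Sf9, ~20 ng/point) phosphorylates non-active GST-MEK1 (50 nM final) with ATP and MgCl2 in MOPS pH 7.2 buffer, 60 min at RT. Product is captured on anti-GST plates; MEK1 pSer217/221 is read by phospho-antibody plus europium conjugate (DELFIA).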
In general terms: An ELISA detects its analyte on a solid surface through an enzyme-linked reagent.

The mark [1] stands for this setting: median, cpd concentrations from 10 μM to 30 nM in half log dilutions, read-out: Median IC50.

Like-named read-outs stand apart in the source and are kept apart here.

This note sets out measurements from patent US20070219186A1, “Pyrazolo[1,5-A]pyrimidine derivatives and methods of use thereof” (priority 2006, published 2007).

Usually IC50 stands for the concentration that gives 50% inhibition.

T1 sequence (P15056 whole entry): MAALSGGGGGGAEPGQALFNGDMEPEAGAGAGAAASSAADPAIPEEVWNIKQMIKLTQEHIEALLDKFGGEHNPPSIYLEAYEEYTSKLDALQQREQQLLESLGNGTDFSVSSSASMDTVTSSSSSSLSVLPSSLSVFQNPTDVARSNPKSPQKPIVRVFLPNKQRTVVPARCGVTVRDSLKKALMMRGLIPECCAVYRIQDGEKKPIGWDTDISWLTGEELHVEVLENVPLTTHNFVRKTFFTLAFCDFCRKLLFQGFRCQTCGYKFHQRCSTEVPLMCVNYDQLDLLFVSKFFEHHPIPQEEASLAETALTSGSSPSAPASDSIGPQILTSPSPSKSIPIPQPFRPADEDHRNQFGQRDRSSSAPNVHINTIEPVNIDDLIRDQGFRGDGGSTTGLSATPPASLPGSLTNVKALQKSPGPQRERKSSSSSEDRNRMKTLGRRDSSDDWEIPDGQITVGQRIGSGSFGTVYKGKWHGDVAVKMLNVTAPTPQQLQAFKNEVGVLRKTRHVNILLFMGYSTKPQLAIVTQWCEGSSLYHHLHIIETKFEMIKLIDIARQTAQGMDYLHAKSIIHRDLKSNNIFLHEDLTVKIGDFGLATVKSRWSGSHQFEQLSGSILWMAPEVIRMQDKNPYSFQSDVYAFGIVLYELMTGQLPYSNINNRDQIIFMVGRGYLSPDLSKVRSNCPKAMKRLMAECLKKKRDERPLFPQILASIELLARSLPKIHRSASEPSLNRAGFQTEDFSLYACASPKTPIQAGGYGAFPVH

Turning to `CCOC(=O)c1cnn2c(-c3cccc(NC(=O)Cc4ccc(OC)c(C)c4)c3)ccnc12` [Example 101, ethyl 7-(3-{[(4-methoxy-3-methylphenyl)acetyl]amino}phenyl)pyrazolo[1,5-a]pyrimidine-3-carboxylate], the inhibition at 10 µM was determined as 0%. In addition, the IC50 under setting [1] was greater than 10 µM.

Regarding `CCOC(=O)c1cnn2c(-c3cccc(NC(=O)c4cc(C(F)(F)F)ccc4Cl)c3)ccnc12` [Example 27, ethyl 7-(3-{[2-chloro-5-(trifluoromethyl)benzoyl]amino}phenyl)pyrazolo[1,5-a]pyrimidine-3-carboxylate], the inhibition at 10 µM was 12%. The IC50 under setting [1] is greater than 10 µM.

Take `NC(=O)c1cccc(-c2cnn3c(-c4cccc(NC(=O)c5cccc(C(F)(F)F)c5)c4)ccnc23)c1` [Example 271, N-(3-{3-[3-(aminocarbonyl)phenyl]pyrazolo[1,5-a]pyrimidin-7-yl}phenyl)-3-(trifluoromethyl)benzamide]: the IC50 amounted to 0.057 µM and the inhibition at 10 µM is 93%.

Regarding `CCOC(=O)c1cnn2c(-c3cccc(NC(=O)c4cccc(C(F)(F)F)c4)c3)ccnc12` [Example 1, Pyrazolo[1,5-a]pyrimidine-3-carboxylic acid, 7-[3-[[3-(trifluoromethyl)-benzoyl]amino]phenyl]-, ethyl ester], the inhibition at 10 µM came out at 66%. In addition, the IC50 under setting [1] was determined as 0.72 µM.

For the compound `CN(C)c1cc2nccc(-c3cccc(NC(=O)c4cccc(C(F)(F)F)c4)c3)n2n1` [Example 187, N-{3-[2-(dimethylamino)pyrazolo[1,5-a]pyrimidin-7-yl]phenyl}-3-(trifluoromethyl)benzamide], the inhibition at 10 µM stood at 31%. Moreover, under setting [1], the half-inhibitory concentration (IC50) was greater than 10 µM.

Regarding `O=C(Nc1cccc(-c2ccnc3cc(-c4ccncc4)nn23)c1)c1ccc(Br)s1` [Example 239, 5-bromo-N-[3-(2-pyridin-4-ylpyrazolo[1,5-a]pyrimidin-7-yl)phenyl]thiophene-2-carboxamide], the inhibition at 10 µM was found to be 86%. Further, under setting [1], the half-maximal inhibitory concentration (IC50) turned out to be 0.2 µM.

As for `CC(C)(C)OC(=O)NC1CCN(c2cc3nccc(-c4cccc(NC(=O)c5cccc(C(F)(F)F)c5)c4)n3n2)C1` (stereo not drawn) [Example 212, tert-butyl {1-[7-(3-{[3-(trifluoromethyl)benzoyl]amino}phenyl)pyrazolo[1,5-a]pyrimidin-2-yl]pyrrolidin-3-yl}carbamate], the inhibition at 10 µM came out at 22%. The IC50 under setting [1] is greater than 10 µM.

For the compound `CCOC(=O)c1cnn2c(-c3ccc(N4CC(C)OC(C)C4)c(NC(=O)c4cccc(C(F)(F)F)c4)c3)ccnc12` (stereo not drawn) [Example 87, ethyl 7-(4-(2,6-dimethylmorpholin-4-yl)-3-{[3-(trifluoromethyl)benzoyl]amino}phenyl)pyrazolo[1,5-a]pyrimidine-3-carboxylate], the inhibition at 10 µM was 9%. Further, the concentration for half-maximal inhibition (IC50) under setting [1] is greater than 10 µM.

As to `CN(C)Cc1ccccc1-c1cnn2c(-c3cccc(NC(=O)c4cccc(C(F)(F)F)c4)c3)ccnc12` [Example 272, N-[3-(3-{2-[(dimethylamino)methyl]phenyl}pyrazolo[1,5-a]pyrimidin-7-yl)phenyl]-3-(trifluoromethyl)benzamide], the inhibition at 10 µM was determined as 92%. For the same compound, the IC50 under setting [1] is 0.117 µM.

Take `CCOC(=O)c1cnn2c(-c3cccc(NC(=O)Nc4ccc(Cl)cc4C)c3)ccnc12` [Example 36, ethyl 7-[3-({[(4-chloro-2-methylphenyl)amino]carbonyl}amino)phenyl]pyrazolo[1,5-a]pyrimidine-3-carboxylate]: the inhibition at 10 µM came out at 33%. In addition, the IC50 under setting [1] was greater than 10 µM.

As for `CCOC(=O)c1cnn2c(-c3cccc(NC(=O)c4cc(C(F)(F)F)ccc4C)c3)ccnc12` [Example 104, ethyl 7-(3-{[2-methyl-5-(trifluoromethyl)benzoyl]amino}phenyl)pyrazolo[1,5-a]pyrimidine-3-carboxylate], under setting [1], the IC50 is 10.1 µM. For the same compound, the inhibition at 10 µM (single point assay, 10 uM) worked out at 1%.

For the compound `O=C(Nc1cccc(-c2ccnc3cc(O)nn23)c1)c1cccc(C(F)(F)F)c1` [Example 250, N-[3-(2-hydroxypyrazolo[1,5-a]pyrimidin-7-yl)phenyl]-3-(trifluoromethyl)benzamide], the inhibition at 10 µM amounted to 16%. For the same compound, under setting [1], the concentration for half-maximal inhibition (IC50) is greater than 10 µM.

On to `O=C(Nc1cccc(-c2ccnc3cc(-c4ccncc4)nn23)c1)Nc1ccc(Cl)c(C(F)(F)F)c1` [Example 133, N-[4-chloro-3-(trifluoromethyl)phenyl]-N′-[3-(2-pyridin-4-ylpyrazolo[1,5-a]pyrimidin-7-yl)phenyl]urea], for which the IC50 under setting [1] worked out at 0.03 µM. Further, the “% Inhib./10 uM” value (single point assay, 10 uM) stood at 98%.

As for `O=C(Nc1cccc(-c2ccnc3c(C(=O)Nc4cccnc4)cnn23)c1)c1cccc(C(F)(F)F)c1` [Example 47, N-pyridin-3-yl-7-(3-{[3-(trifluoromethyl)benzoyl]amino}phenyl)pyrazolo[1,5-a]pyrimidine-3-carboxamide], the inhibition at 10 µM was found to be 35%. Moreover, the IC50 under setting [1] was greater than 10 µM.

Regarding `CCOC(=O)c1cnn2c(-c3cccc(NC(=O)Nc4ccccc4C(F)(F)F)c3)ccnc12` [Example 39, ethyl 7-{3-[({[2-(trifluoromethyl)phenyl]amino}carbonyl)amino]phenyl}pyrazolo[1,5-a]pyrimidine-3-carboxylate], the IC50 under setting [1] was greater than 10 µM. Besides, under “single point assay, 10 uM”, the inhibition at 10 µM was 14%.

For the compound `O=C(Nc1cccc(-c2ccnc3cc(-c4ccnc(NCCCN5CCCC5=O)c4)nn23)c1)c1cccc(C(F)(F)F)c1` [Example 261, N-{3-[2-(2-{[3-(2-oxopyrrolidin-1-yl)propyl]amino}pyridin-4-yl)pyrazolo[1,5-a]pyrimidin-7-yl]phenyl}-3-(trifluoromethyl)benzamide], the IC50 came to 0.113 µM and the inhibition at 10 µM stood at 94%.

As for `CCOC(=O)c1cnn2c(-c3cccc(NC(=O)Cc4ccc5c(c4)OCO5)c3)ccnc12` [Example 100, ethyl 7-{3-[(1,3-benzodioxol-5-ylacetyl)amino]phenyl}pyrazolo[1,5-a]pyrimidine-3-carboxylate], the inhibition at 10 µM was 2%. In addition, under setting [1], the IC50 was greater than 10 µM.

In the case of `CN(C)CC(=O)Nc1cccc(-c2cnn3c(-c4cccc(NC(=O)c5cccc(C(F)(F)F)c5)c4)ccnc23)c1` [Example 253, N-[3-(3-{3-[(N,N-dimethylglycyl)amino]phenyl}pyrazolo[1,5-a]pyrimidin-7-yl)phenyl]-3-(trifluoromethyl)benzamide], the inhibition at 10 µM stood at 97%. Under setting [1], the IC50 came to 0.04 µM.

Take `CCOC(=O)c1cnn2c(-c3cc(NC(=O)c4ccc(C)c(C(F)(F)F)c4)ccc3[N+](=O)[O-])ccnc12` [Example 105, ethyl 7-(5-{[4-methyl-3-(trifluoromethyl)benzoyl]amino}-2-nitrophenyl)pyrazolo[1,5-a]pyrimidine-3-carboxylate]: the inhibition at 10 µM is 37%. Further, under setting [1], the half-inhibitory concentration (IC50) is greater than 10 µM.

Take `CCOC(=O)c1cnn2c(-c3cccc(NC(=O)Nc4cccc(Cl)c4)c3)ccnc12` [Example 80, Ethyl 7-[3-({[(3-chlorophenyl)amino]carbonyl}amino)phenyl]-pyrazolo[1,5-a]pyrimidine-3-carboxylate]: the inhibition at 10 µM stood at 47%.

Turning to `O=C(Cc1nnn[nH]1)Nc1cccc(-c2cnn3c(-c4cccc(NC(=O)c5cccc(C(F)(F)F)c5)c4)ccnc23)c1` [Example 256, N-[3-(3-{3-[(1H-tetrazol-5-ylacetyl)amino]phenyl}pyrazolo[1,5-a]pyrimidin-7-yl)phenyl]-3-(trifluoromethyl)benzamide], the inhibition at 10 µM came to 97%. Besides, under setting [1], the IC50 is 0.122 µM.

Consider `COCCCNC(=O)c1cnn2c(-c3cccc(NC(=O)Nc4ccc(Cl)c(C(F)(F)F)c4)c3)ccnc12` [Example 121, 7-{3-[({[4-chloro-3-(trifluoromethyl)phenyl]amino}carbonyl)amino]phenyl}-N-(3-methoxypropyl)pyrazolo[1,5-a]pyrimidine-3-carboxamide], for which the inhibition at 10 µM stood at 92%. Under setting [1], the half-inhibitory concentration (IC50) was 0.19 µM.

On to `Cc1cc2nccc(-c3cccc(NC(=O)c4ccc(C)c(C(F)(F)F)c4)c3)n2n1` [Example 116, 4-methyl-N-[3-(2-methylpyrazolo[1,5-a]pyrimidin-7-yl)phenyl]-3-(trifluoromethyl)benzamide], for which the inhibition at 10 µM turned out to be 31%. Besides, the half-maximal inhibitory concentration (IC50) under setting [1] is greater than 10 µM.

Take `O=C(Nc1cccc(-c2ccnc3c(-c4cccnc4)cnn23)c1)Nc1ccc(Cl)c(C(F)(F)F)c1` [Example 174, N-[4-chloro-3-(trifluoromethyl)phenyl]-N′-[3-(3-pyridin-3-ylpyrazolo[1,5-a]pyrimidin-7-yl)phenyl]urea]: the inhibition at 10 µM was found to be 96%. Moreover, the IC50 under setting [1] stood at 0.11 µM.

`O=C(Nc1cccc(-c2ccnc3cc(-c4ccncc4)nn23)c1)c1ccc(Cl)cc1` [Example 151, 4-chloro-N-[3-(2-pyridin-4-ylpyrazolo[1,5-a]pyrimidin-7-yl)phenyl]benzamide]: the inhibition at 10 µM stood at 33%. Under setting [1], the IC50 was greater than 10 µM.

In the case of `O=C(Nc1cccc(-c2ccnc3cc(-c4ccncc4)nn23)c1)c1cccc(Cl)c1` [Example 150, 3-chloro-N-[3-(2-pyridin-4-ylpyrazolo[1,5-a]pyrimidin-7-yl)phenyl]benzamide], the IC50 came out at 1.1 µM.

As to `O=C(Nc1cccc(-c2ccnc3cc(-c4ccncc4)nn23)c1)c1ccc(Cl)c(Cl)c1` [Example 149, 3,4-dichloro-N-[3-(2-pyridin-4-ylpyrazolo[1,5-a]pyrimidin-7-yl)phenyl]benzamide], the half-inhibitory concentration (IC50) came out at 1.25 µM and the inhibition at 10 µM is 72%.

With `CCOC(=O)c1cnn2c(-c3cccc(NC(=O)c4ccc(C(F)(F)F)cc4)c3)ccnc12` [Example 10, ethyl 7-(3-{[4-(trifluoromethyl)benzoyl]amino}phenyl)pyrazolo[1,5-a]pyrimidine-3-carboxylate], the inhibition at 10 µM is 27%. Also, under setting [1], the 50% inhibitory concentration (IC50) was greater than 10 µM.
